Laboratory results reported in patent US20230272448A1, “AN IMPROVED SUBSTRATE COCKTAIL ASSAY FOR HIGH-THROUGHPUT SCREENING OF CYTOCHROME P450 INHIBITORS” (priority 2020, published 2023).

Tests used:
[1] = target: T1, CYP2B6 (Homo sapiens, UniProt P20813); conditions: literature reported Km; metabolite hydroxyl-bupropion; cited from earlier work
T1 sequence (P20813 1-491): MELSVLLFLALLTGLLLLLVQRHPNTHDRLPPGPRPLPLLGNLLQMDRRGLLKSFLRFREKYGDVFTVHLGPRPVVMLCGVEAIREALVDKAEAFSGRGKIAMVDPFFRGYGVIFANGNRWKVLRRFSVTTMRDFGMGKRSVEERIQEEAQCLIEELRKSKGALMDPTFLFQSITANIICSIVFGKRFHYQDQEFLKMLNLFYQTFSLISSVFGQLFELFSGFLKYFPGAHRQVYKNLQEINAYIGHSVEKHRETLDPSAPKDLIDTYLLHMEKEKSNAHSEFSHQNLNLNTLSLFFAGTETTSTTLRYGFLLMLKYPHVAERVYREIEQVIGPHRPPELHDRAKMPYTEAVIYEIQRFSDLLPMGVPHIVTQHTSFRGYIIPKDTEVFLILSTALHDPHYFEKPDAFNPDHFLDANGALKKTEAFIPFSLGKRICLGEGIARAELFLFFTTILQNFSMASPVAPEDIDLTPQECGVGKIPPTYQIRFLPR

[2] = target: T2, CYP2A6 (Homo sapiens, UniProt P11509); conditions: literature reported Km; metabolite hydroxyl-coumarine; cited from earlier work
T2 sequence (P11509 1-494): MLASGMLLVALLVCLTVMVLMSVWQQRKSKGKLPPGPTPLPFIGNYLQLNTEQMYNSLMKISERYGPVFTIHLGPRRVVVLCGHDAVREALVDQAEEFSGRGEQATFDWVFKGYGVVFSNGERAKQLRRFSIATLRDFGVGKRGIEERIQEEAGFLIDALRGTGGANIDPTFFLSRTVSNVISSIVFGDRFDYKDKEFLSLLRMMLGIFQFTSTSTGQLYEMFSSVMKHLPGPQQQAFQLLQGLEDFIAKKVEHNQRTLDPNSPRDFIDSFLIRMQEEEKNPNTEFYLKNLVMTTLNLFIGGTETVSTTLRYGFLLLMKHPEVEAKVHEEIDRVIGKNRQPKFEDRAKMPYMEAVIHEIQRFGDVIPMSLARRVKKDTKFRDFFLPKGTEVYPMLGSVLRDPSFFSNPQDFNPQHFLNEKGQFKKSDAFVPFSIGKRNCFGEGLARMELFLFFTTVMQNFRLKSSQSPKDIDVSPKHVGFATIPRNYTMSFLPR

[3] = target: CYP2C9 (Homo sapiens, UniProt P11712); conditions: literature reported Km; metabolite hydroxyl-diclofenac; cited from earlier work
Sequence of CYP2C9 (P11712 whole entry): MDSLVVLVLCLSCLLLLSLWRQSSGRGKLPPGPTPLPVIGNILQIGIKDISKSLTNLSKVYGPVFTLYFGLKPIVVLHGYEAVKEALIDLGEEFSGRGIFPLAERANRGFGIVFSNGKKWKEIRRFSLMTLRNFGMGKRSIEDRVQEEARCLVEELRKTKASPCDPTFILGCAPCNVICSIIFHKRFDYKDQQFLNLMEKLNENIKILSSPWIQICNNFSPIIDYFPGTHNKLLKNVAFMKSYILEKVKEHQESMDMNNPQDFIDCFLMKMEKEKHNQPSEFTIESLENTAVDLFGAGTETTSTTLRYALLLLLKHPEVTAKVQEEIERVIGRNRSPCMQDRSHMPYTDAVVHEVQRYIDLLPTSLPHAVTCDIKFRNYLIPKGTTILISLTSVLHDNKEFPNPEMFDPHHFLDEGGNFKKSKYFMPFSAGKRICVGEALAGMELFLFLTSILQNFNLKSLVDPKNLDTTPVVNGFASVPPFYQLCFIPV

[4] = target: T3, CYP2C8 (Homo sapiens, UniProt P10632); assay: Single substrate (individual) CYP inhibition assay in human liver microsomes, LC-MS/MS; conditions: read-out: Single Substrate IC50; substrate Paclitaxel 5 μM; HLM 0.2 mg/mL; 30 min; n = 4
T3 sequence (P10632 1-490): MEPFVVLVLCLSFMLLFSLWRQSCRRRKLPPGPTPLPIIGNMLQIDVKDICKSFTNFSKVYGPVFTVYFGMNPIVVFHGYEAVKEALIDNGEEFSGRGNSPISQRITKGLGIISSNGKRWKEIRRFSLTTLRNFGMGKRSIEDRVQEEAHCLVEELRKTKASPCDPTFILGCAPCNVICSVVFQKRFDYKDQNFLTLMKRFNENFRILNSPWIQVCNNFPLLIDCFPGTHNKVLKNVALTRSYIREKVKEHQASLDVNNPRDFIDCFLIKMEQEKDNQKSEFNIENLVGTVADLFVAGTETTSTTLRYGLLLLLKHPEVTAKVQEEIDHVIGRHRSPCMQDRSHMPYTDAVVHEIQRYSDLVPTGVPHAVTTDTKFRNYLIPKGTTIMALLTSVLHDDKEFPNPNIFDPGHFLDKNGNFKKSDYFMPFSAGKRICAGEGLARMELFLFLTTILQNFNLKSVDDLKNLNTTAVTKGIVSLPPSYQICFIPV

[5] = target: T3, CYP2C8; conditions: literature reported Km; metabolite 6-alpha hydroxyl-paclitaxel; cited from earlier work
[6] = target: T4, CYP3A4 (Homo sapiens, UniProt P08684); conditions: reported; cited from earlier work
T4 sequence (P08684 whole entry): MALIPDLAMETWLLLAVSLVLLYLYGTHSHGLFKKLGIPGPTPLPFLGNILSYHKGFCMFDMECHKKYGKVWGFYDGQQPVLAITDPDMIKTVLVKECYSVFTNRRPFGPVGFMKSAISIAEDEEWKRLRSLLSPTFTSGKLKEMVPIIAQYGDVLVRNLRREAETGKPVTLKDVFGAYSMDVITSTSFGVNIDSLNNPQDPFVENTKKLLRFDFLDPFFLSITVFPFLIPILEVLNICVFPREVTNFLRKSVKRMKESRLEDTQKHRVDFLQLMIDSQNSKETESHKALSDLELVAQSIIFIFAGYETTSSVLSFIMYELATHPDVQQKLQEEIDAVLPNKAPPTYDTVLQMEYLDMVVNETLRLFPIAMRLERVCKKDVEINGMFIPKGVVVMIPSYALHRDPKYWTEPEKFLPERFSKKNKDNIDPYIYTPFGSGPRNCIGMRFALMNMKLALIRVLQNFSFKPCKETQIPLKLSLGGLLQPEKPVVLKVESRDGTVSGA

[7] = target: T1, CYP2B6; conditions: reported; cited from earlier work
[8] = target: T4, CYP3A4; conditions: literature reported Km; metabolite hydroxyl-testosterone; cited from earlier work

SMILES: CC(NC(C)(C)C)C(=O)c1cccc(Cl)c1 (centres unmarked) [Bupropion]
- Km [1]: 103 ± 7.65 µM

SMILES: O=c1ccc2ccccc2o1 [Coumarin]
- Km [2]: 1.17 ± 0.118 µM

SMILES: O=C(O)Cc1ccccc1Nc1c(Cl)cccc1Cl [Diclofenac]
- Km [3]: 22 ± 11 µM

SMILES: CC(C)(O)c1ccccc1CC[C@@H](SCC1(CC(=O)O)CC1)c1cccc(/C=C/c2ccc3ccc(Cl)cc3n2)c1 [Montelukast]
- IC50 [4]: 521 nM

SMILES: CC(=O)O[C@H]1C(=O)[C@@]2(C)[C@H]([C@H](OC(=O)c3ccccc3)[C@]3(O)C[C@H](OC(=O)[C@H](O)[C@@H](NC(=O)c4ccccc4)c4ccccc4)C(C)=C1C3(C)C)[C@]1(OC(C)=O)CO[C@@H]1C[C@@H]2O [Paclitaxel]
- Km [5]: 11.5 ± 7.5 µM

SMILES: CCOc1ccc(NC(C)=O)cc1 [Phenacetin]
- Inhibition of CYP3A4 by probe substrate [6]: weakly inhibit
- Inhibition of CYP2B6 by probe substrate [7]: weakly inhibit

SMILES: C[C@]12CC[C@H]3[C@@H](CCC4=CC(=O)CC[C@@]43C)[C@@H]1CC[C@@H]2O [Testosterone]
- Km [8]: 48.5 ± 3.75 µM
